According to patent US8252807B2, “Methods of inhibiting the interaction between S100 and the receptor for advanced glycation end-products” (Board of Regents, The University of Texas System, priority 2007, dated 2012):
Where “and” joins values, the source holds several entries; their conditions need not be identical. Equal values may be shown once.

Key:
BxPC-3 cells = test: Flow cytometry to measure apoptosis in BxPC-3 cells; format: cell-based; conditions: 48 hours
Description: BxPC-3 cells were treated with cromolyn (10 μM) with (+) or without (−) gemcitabine (10 μM), and apoptosis was analyzed after 48 hours by flow cytometry. *, P<0.001 versus control, #, P=0.001 versus gemcitabine. Means and 95% confidence intervals of three independent experiments performed in triplicate are shown. Two-tailed two-sample (unpaired) Student's t-tests were used to determine P values. Standard propidium iodide (PI) staining by the hypotonic lysis method was used for apoptosis studies. Apoptosis was induced in 1.0×10^6 BxPC-3 cells by treatment with gemcitabine (10 μM), with or without cromolyn. After 48 hours the cells were detached from culture dishes by incubation in 0.05% trypsin-EDTA, washed once with cold PBS, and then incubated for 30 minutes in 500 μL of hypotonic solution (0.1% sodium citrate, 0.1% Triton X-100, 100 μg/mL RNAse, and 50 μg/mL PI), and analyzed by flow cytometry (EPICS XL, Beckman Coulter Inc, Fullerton, Calif.). Cells undergoing apoptosis that had lost part of their DNA were identified as the population of cells with sub-G1 DNA content. These assays were performed three times.

Panc-1 orthotopic tumors = test: Tumor growth and metastasis in scid mice, Panc-1 orthotopic; format: in vivo; conditions: for effect on liver or lung metastasis: Panc-1
Description: FIGS. 6A-6F show the effect of cromolyn on Panc-1 tumor growth and metastasis in vivo. Panc-1 cells stably expressing the firefly luciferase gene were injected orthotopically into 4-week-old male CB 17 scid mice. […] Mice were divided into four groups of five mice each with an equivalent mean tumor size between groups. […] One group was treated with water (control), one group received gemcitabine bi-weekly (125 mg per kg body weight bi-weekly by intraperitoneal injection), one group was administered cromolyn daily (5 mg per kg body weight daily by intraperitoneal injection), and the final group was given the combination of cromolyn and gemcitabine. All groups were treated for six weeks. Bioluminescent imaging was done weekly to assess tumor growth. […] Means and 95% confidence intervals from two independent experiments are shown (n=20). Two-tailed two-sample (unpaired) Student's t-tests were used to determine P values.
The anti-tumorigenic capability of the drug cromolyn was assessed in 4-week-old male CB 17 scid mice (n=20) carrying orthopic tumors of BxPC-3, MPanc96, and Panc-1 cells stably expressing a Lenti-luc reporter. All mouse experiments were reviewed and approved by the Institutional Animal Care and Use Committee of UT MD Anderson Cancer Center. All mice were maintained in a sterile environment. Cages, bedding, food, and water were all autoclaved. All mice were maintained on a daily 12-hour light/12-hour dark cycle, according to the institutional animal welfare guidelines.
BxPC-3, MPanc96, and Panc-1 cells carrying the Lenti-luc reporter gene were grown to 80% confluence, harvested by incubation with trypsin-EDTA, washed twice in PBS, and resuspended to a final concentration of 4.0×10^6 cells/mL. Each mouse (n=20 mice per cell line) was injected (into the pancreas) with cell suspensions (50 μL). Bioluminescent imaging to determine tumor volume was performed 1 week after injection because the tumors became established within this amount of time. This initial tumor volume was used to divide the mice into four groups of five mice each, such that the mean tumor size was equal between groups (FIGS. 4A, 5A, and 6A). To allow enough time to observe differences among treatment groups, the mice were followed for the next 5 weeks. One group of mice was then treated biweekly with a sub-maximal concentration of gemcitabine (125 mg per kg body weight by i.p. injection). A second group was treated with a daily injection of cromolyn (5 mg per kg body weight by i.p. injection). A third group was treated with both bi-weekly gemcitabine and daily cromolyn. The control group was treated daily with vehicle. Treatments were continued for 5 weeks, and the effects on the tumor burden and metastasis were analyzed by weekly bioluminescence imaging (FIGS. 4B, 5B, and 6B). At the end of the experiment the mice were anesthetized with 1.5% isofluorane/air mixture and killed by cervical dislocation.
Bioluminescence imaging was conducted using a cryogenically cooled IVIS 100 imaging system coupled to a data acquisition computer running Living Image software (Xenogen Corp., Alameda, Calif.). Before imaging, mice were placed in an acrylic chamber, anesthetized with 1.5% isofluorane/air mixture, and injected i.p. with 15 mg/mL of luciferin potassium salt in PBS at a dose of 150 mg per kg body weight. A digital grey scale image of each mouse was acquired, followed by acquisition and overlay of a pseudocolor image representing the spatial distribution of detected photons emerging from active luciferase within the mouse. Tumor volume was quantified as the sum of all detected photons within the region of the tumor per second. At the end of experiment, the mice were killed, and tumors were surgically removed and weighed. After the primary tumors were removed, cancer cell dissemination and metastasis was visualized using IVIS imaging, and metastatic colonies were counted. […]

Compound	apoptotic BxPC-3 cells, mean (BxPC-3 cells; gemcitabine 10 μM, cromolyn 10 μM, control mean=3.7%)	apoptotic BxPC-3 cells, difference versus control (BxPC-3 cells; gemcitabine 10 μM) [%]	effect on liver or lung metastasis (Panc-1 orthotopic tumors)	body weight, difference versus control (Panc-1 orthotopic tumors; Panc-1 model) [g]	body weight at the end of the experiment, mean (Panc-1 orthotopic tumors; Panc-1 model, control mean=32.0 g) [g]	effect on BxPC-3 cell apoptosis, cromolyn alone (BxPC-3 cells; cromolyn 10 μM)	effect on body weight (Panc-1 orthotopic tumors; Panc-1 model, up to 6 weeks)	tumor development in Panc-1 model (Panc-1 orthotopic tumors; cromolyn 5 mg per kg daily i.p., alone or with gemcitabine)
Nc1ccn([C@@H]2O[C@H](CO)[C@@H](O)C2(F)F)c(=O)n1 [gemcitabine]	31.0% and 30.8%	27.3	neither cromolyn nor gemcitabine nor the combination reduced liver or lung metastasis	4.8	27.2			
O=C(O)c1cc(=O)c2c(OCC(O)COc3cccc4oc(C(=O)O)cc(=O)c34)cccc2o1 [cromolyn, disodium 1,3-bis[(2′-carboxylatochromon-5′-yl)oxy]-2-hydroxypropane]			neither cromolyn nor gemcitabine nor the combination reduced liver or lung metastasis			no statistically significant effect	no effect on body weight	did not reduce tumor development or increase the effectiveness of gemcitabine
